These are literature values, as cited in patent US20240100019A1, “COMPOSITIONS COMPRISING A THERMOREVERSIBLE HYDROGEL, AND HAVING AN EXTENDED IN-USE PERIOD” (UroGen Pharma Ltd., priority 2022, published 2024).

Where two headings read alike, the source gives them in different places.

For data set [1] the following is noted: room temperature; pH 4.5, 5.5, 6.0 and 7.0 solutions.

Consider `CO[C@@]12[C@H](COC(N)=O)C3=C(C(=O)C(C)=C(N)C3=O)N1C[C@@H]1N[C@@H]12` [mitomycin C], for which the “time at which MMC was unstable (less than 90% of the initial value)” value in data set [1] is < 24 h. Moreover, the “time for which MMC was stable (relative concentrations systematically over 90% of the initial concentrations)” value was 10 h (0.2 mg/ml in 0.9% sodium chloride solution) and 8 h (in water for injections at a concentration of 1 mg/mL). Under “after 96 h, these solutions”, the “relative MMC concentration as compared to initial concentration” value is “below 80%”. Further, where the note is “reconstituted and diluted solutions”, the degradation products observed result is given as “below 3%”.
